Assay results taken from US11090305B2, “Methods and compositions to reduce oxidative stress” (University of Massachusetts, priority 2009, dated 2021).

How the values were obtained:
Fyn = Fyn expression in total thymocyte population; format: in vivo, mouse; conditions: ApoE^−/− and HCD mice
From the text: Fyn, a member of the Src family of tyrosine kinases, is a critical participant in NKT cell development (33,34). […] FIGS. 55A-55C show Thymocyte Fyn expression is reduced in hypercholesterolemic mice. […] Representative western blots from 3 mice in each group, all run on the same gel, are shown. […] However, in DN3 and DN4 thymocytes, Fyn mRNA expression was less in ApoE^−/− than in WT mice. m±sd, *p<0.05 vs. WT; n=4 mice per group. (C) siRNA for Notch1 reduced mRNA expression of Fyn in WT thymocytes in vitro, with a threshold observed at 1.0 μg siRNA. m±sd, n=3 mice; *p<0.05 vs. random RNA. A representative western blot showing a single experiment run on the same gel is shown. […] These findings indicate that Notch1 and Fyn expression are linked, and that the reduced NKT expression in hypercholesterolemic mice is due, in part, to the Notch1 dependent reduction of Fyn expression in thymocytes. Finally, Fyn expression was determined in the total thymocyte population from WT recipient mice transplanted with ApoE^−/−- or WT-derived HSCs. Thymocyte Fyn expression in WT recipients transplanted with ApoE^−/−-derived HSCs was less than half that observed in WT recipients transplanted with WT-derived HSCs (FIG. 56). […] Fyn expression in thymocytes from the Apoe→WT group was less than in the WT→WT group. m±sd; n=4; *p<0.05 vs. WT→WT group. […]

[1] = test system: hematopoietic stem cells (HSCs); test: DCF-DA staining of HSCs from hypercholesterolemic mice (Example 6); format: in vivo, mouse; conditions: ApoE^−/− and HCD mice, 100 mg/Kg i.p. every other day for 4 weeks
From the text: All mice were purchased from Jackson Laboratories (Bar Harbor, Me.) and were maintained in the mouse barrier facility. Care of mice was in accordance with NIH guidelines and the Institutional Animal Care and Use Committee of the University of Massachusetts Medical School approved all protocols. Mice were kept on a 12 hr day/night schedule and were allowed free access to chow and water. ApoE^−/− and WT mice were fed standard mouse chow (5.4 g fat/100 g diet, 0% cholesterol). HCD mice were fed a diet with 10 g fat/100 g diet, […] (Research Diets, New Brunswick, N.J.). […] Azoxymethane (AOM) was given by intraperitoneal injection (10 mg/Kg weekly for 3 weeks); 1% dextran sodium sulfate was added to the drinking water for the Pt week after AOM treatment. It is known that hypercholesterolemia induces oxidant stress in many cell types. […] FIGS. 49A-49C show hypercholesterolemia increases oxidant levels in hematopoietic stem cells. […] (B) Representative photomicrograph showing oxLDL-staining in HSC and BM-MNC from WT and ApoE^−/− mice. (C) Regression of mean polyp number/mouse on the % of HSC staining for DCF-DA. […] Statistical analysis was carried out using the means for each group. […] One of the principal means by which hypercholesterolemia induces oxidant stress is via the generation of oxidized low density lipoprotein (oxLDL).

db/db MSC [2] = test: Differentiation of db/db MSC towards endothelial cells (CD31 staining); format: cell-based, mouse; conditions: endogenic medium
Description: Endothelial cells were identified by CD31 staining. m±sd, n=4, *P<0.05.
Adipocytes were identified by Oil Red O staining. m±sd, n=4, *p<0.05 vs control. […] Endothelial cells were identified by CD31 staining. m±sd, n=4, *p<0.05 vs control, #p<0.05 vs 5 nM.

db/db MSC [3] = test: Oxidative/nitrative stress in db/db MSC (DCF-DA staining, nitrotyrosine); format: cell-based, mouse; conditions: db/db MSC in vitro
From the text: Data are expressed as % positive DCF-DA cells/hpf. m±sd, n=5, *p<0.05. […] The db/db MSC expressed a greater oxidative/nitrative stress than WT MSC. […] In summary, in vitro, db/db MSC show greater oxidative nitrostive stress than WT MSCs and this phenotype can be reversed by N-acetylcysteine (NAC).

[4] = test system: bone marrow mononuclear cell population; test: Lymphocyte lineage specification: pre-B and pro-T cells in bone marrow; set-up: species or system mouse; conditions: ApoE^−/− mice, in vivo treatment
Description: Cells were stained with monoclonal antibodies conjugated to various fluoroprobes. These antibodies included: Notch1, cKit (2B8), Sca-1 (E13-161.7), CD4 (L3T4), CD8 (53-6.72), CD90.1, CD25, CD44, TCRβ, NK1.1, γδTCR, CD45.1, CD45.2. The lineage cocktail consisted of CD4, CD8, B220 (RA3-6B2), TER-119, Mac-1 (MI/70), and Gr-1 (RB6-8C5). All antibodies were purchased from BD Bioscience (San Diego, Calif.). FACS analysis was carried out on a FACS Diva.
Hypercholesterolemia is associated with lymphocytosis, while induction of hypercholesterolemia in monkeys affects the rate of CD11b monocyte differentiation. […] FIGS. 46A-46C show lymphocyte lineage specification is altered in hypercholesterolemic mice. (A) The percentages of pre-B cells and pro-T cells in the bone marrow mononuclear cell population were lower and higher, respectively, in ApoE^−/− than in WT mice. These changes were reversed by in vivo treatment of ApoE mice with NAC. (B) The percentages of pre-B cells and pro-T cells in the bone marrow mononuclear cell population were lower and higher, respectively, in HCD than in WT mice. (C) The percentage of mature B cells was lower and that of mature T cells higher in the peripheral blood mononuclear cell population from ApoE mice than from WT mice. The percentage of NKT cells was also less in ApoE mice.

With `CC(=O)N[C@@H](CS)C(=O)O` [NAC, N-acetylcysteine] the “expression of Fyn in the total thymocyte population” value (Fyn) was “restored in vivo by treatment with NAC”, the “DCF-DA staining in HSCs” value [1] was “significantly reversed” and the “differentiation towards endothelial cells” value (db/db MSC [2]) was “increased differentiation towards endothelial cells”. The “oxidative/nitrative stress (DCF-DA staining, nitrotyrosine accumulation)” value (db/db MSC [3]) was “significantly reduced the presence of oxidative/nitrative stress” and the “percentages of pre-B cells and pro-T cells in bone marrow” value [4] was “reversed these effects”.
